Broadly, the melting point is the temperature, or range, at which the solid turns liquid.

One data set deals with TNF-α. Kind of data set: Cytokine induction in human cells (PBMC): TNF-α secreted into culture media, ORIGEN M-Series immunoassay. It is filed as cell-based. The note with it: median where several experiments; for minimal effective concentration: 30-0.014 μM, lowest concentration inducing over 40 pg/mL, read-out: Minimum Effective Concentration TNF; for Maximal Response TNF: Table 4, background-subtracted, reference-adjusted, * = below background. From the text:
(§1) An in vitro human blood cell system is used to assess cytokine induction. Activity is based on the measurement of interferon (α) and tumor necrosis factor (α) (IFN-α, and TNF-α, respectively) secreted into culture media as described by Testerman et. al. in “Cytokine Induction by the Immunomodulators Imiquimod and S-27609”, Journal of Leukocyte Biology, 58, 365-372 (September, 1995).
(§2) Whole blood from healthy human donors is collected by venipuncture into vacutainer tubes or syringes containing EDTA. Peripheral blood mononuclear cells (PBMC) are separated from whole blood by density gradient centrifugation using HISTOPAQUE-1077 (Sigma, St. Louis, Mo.) or Ficoll-Paque Plus (Amersham Biosciences Piscataway, N.J.). Blood is diluted 1:1 with Dulbecco's Phosphate Buffered Saline (DPBS) or Hank's Balanced Salts Solution (HBSS). Alternately, whole blood is placed in Accuspin (Sigma) or LeucoSep (Greiner Bio-One, Inc., Longwood Fla.) centrifuge frit tubes containing density gradient medium. The PBMC layer is collected and washed twice with DPBS or HBSS and re-suspended at 4×10^6 cells/mL in RPMI complete. The PBMC suspension is added to 96 well flat bottom sterile tissue culture plates containing an equal volume of RPMI complete media containing test compound.
(§3) The compounds are solubilized in dimethyl sulfoxide (DMSO). The DMSO concentration should not exceed a final concentration of 1% for addition to the culture wells. The compounds are generally tested at concentrations ranging from 30-0.014 μM. Controls include cell samples with media only, cell samples with DMSO only (no compound), and cell samples with reference compound.
(§4) The solution of test compound is added at 60 μM to the first well containing RPMI complete and serial 3 fold dilutions are made in the wells. The PBMC suspension is then added to the wells in an equal volume, bringing the test compound concentrations to the desired range (usually 30-0.014 μM). The final concentration of PBMC suspension is 2×10^6 cells/mL. The plates are covered with sterile plastic lids, mixed gently and then incubated for 18 to 24 hours at 37° C. in a 5% carbon dioxide atmosphere.
(§5) Following incubation the plates are centrifuged for 10 minutes at 1000 rpm (approximately 200×g) at 4° C. The cell-free culture supernatant is removed and transferred to sterile polypropylene tubes. Samples are maintained at −30 to −70° C. until analysis. The samples are analyzed for IFN-α by ELISA and for TNF-α by IGEN/BioVeris Assay.
The TNF-α concentration is determined by ORIGEN M-Series Immunoassay and read on an IGEN M-8 analyzer from BioVeris Corporation, formerly known as IGEN International, Gaithersburg, Md. The immunoassay uses a human TNF-α capture and detection antibody pair (Catalog Numbers AHC3419 and AHC3712) from Biosource International, Camarillo, Calif. Results are expressed in pg/mL.
Analysis of the data has two steps. First, the greater of the mean DMSO (DMSO control wells) or the experimental background (usually 20 pg/mL for IFN-α and 40 pg/mL for TNF-α) is subtracted from each reading. If any negative values result from background subtraction, the reading is reported as “*” and is noted as not reliably detectable. In subsequent calculations and statistics, “*” is treated as a zero. Second, all, background subtracted values are multiplied by a single adjustment ratio to decrease experiment to experiment variability. The adjustment ratio is the area of the reference compound in the new experiment divided by the expected area of the reference compound based on the past 61 experiments (unadjusted readings). […] The reference compound used is 2-[4-amino-2-ethoxymethyl-6,7,8,9-tetrahydro-α,α-dimethyl-1H-imidazo[4,5-c]quinolin-1-yl]ethanol hydrate (U.S. Pat. No. 5,352,784; Example 91) and the expected area is the sum of the median dose values from the past 61 experiments. […]

The subject of another data set is IFN-α. The experiment in a line: Cytokine induction in human cells (PBMC): IFN-α secreted into culture media, ELISA. The class given is cell-based. To be noted: median where several experiments; for minimal effective concentration: 30-0.014 μM, lowest concentration inducing over 20 pg/mL, read-out: Minimum Effective Concentration IFN.
Excerpt: as §1, §2, §3, §4, §5
IFN-α concentration is determined with a human multi-subtype colorimetric sandwich ELISA (Catalog Number 41105) from PBL Biomedical Laboratories, Piscataway, N.J. Results are expressed in pg/mL.
Analysis of the data has two steps. First, the greater of the mean DMSO (DMSO control wells) or the experimental background (usually 20 pg/mL for IFN-α and 40 pg/mL for TNF-α) is subtracted from each reading. If any negative values result from background subtraction, the reading is reported as “*” and is noted as not reliably detectable. In subsequent calculations and statistics, “*” is treated as a zero. Second, all, background subtracted values are multiplied by a single adjustment ratio to decrease experiment to experiment variability. The adjustment ratio is the area of the reference compound in the new experiment divided by the expected area of the reference compound based on the past 61 experiments (unadjusted readings). […] The reference compound used is 2-[4-amino-2-ethoxymethyl-6,7,8,9-tetrahydro-α,α-dimethyl-1H-imidazo[4,5-c]quinolin-1-yl]ethanol hydrate (U.S. Pat. No. 5,352,784; Example 91) and the expected area is the sum of the median dose values from the past 61 experiments.
The minimum effective concentration is calculated based on the background-subtracted, reference-adjusted results for a given experiment and compound. […]
A general note: In an ELISA, binding on a coated surface is turned into a signal by an enzyme label.

Structures can show the parent of a compound that is named as a salt. Where two headings read alike, the source gives them in different places.

`COCCc1nc2c(N)nc3cccnc3c2n1CC(C)(C)O` (as salt: hydrobromid) [Analog 2, 1-[4-amino-2-(2-methoxyethyl)-1H-imidazo[4,5-c][1,5]naphthyridin-1-yl]-2-methylpropan-2-ol] showed a melting point of 234 to 235 °C.
The molecule `CCOCc1nc2c(N)nc3cccnc3c2n1CC(C)(C)O` [Analog 1, 1-(4-amino-2-ethoxymethyl-1H-imidazo[4,5-c][1,5]naphthyridin-1-yl)-2-methylpropan-2-ol] gave a melting point of 157 to 159 °C. The minimal effective concentration in the data set on TNF-α (Table 3, 18 to 24 hours) was determined as 1.11 µM. Besides, the minimal effective concentration with TNF-α (Table 4, 18 to 24 hours) is 1.11 µM. The minimal effective concentration in the data set with IFN-α (Table 3, 18 to 24 hours) amounted to 0.12 µM. In addition, the minimal effective concentration in the data set on IFN-α (Table 4, 18 to 24 hours) was found to be 0.12 µM.
On to `COCCc1nc2c(N)nc3cccnc3c2n1CC(C)(C)O` [Analog 2, 1-[4-amino-2-(2-methoxyethyl)-1H-imidazo[4,5-c][1,5]naphthyridin-1-yl]-2-methylpropan-2-ol, reference compound], for which the minimal effective concentration was 0.37 µM in the data set on TNF-α (Table 3, 18 to 24 hours); 0.37 µM in the data set with TNF-α (Table 4, 18 to 24 hours); 0.04 µM with IFN-α (Table 3, 18 to 24 hours); 0.04 µM in the data set on IFN-α (Table 4, 18 to 24 hours).
Take `Cc1nc2c(N)nc3cccnc3c2n1CC(C)(C)O` [Analog 3, 1-(4-amino-2-methyl-1H-imidazo[4,5-c][1,5]naphthyridin-1-yl)-2-methylpropan-2-ol, reference compound]: the minimal effective concentration stood at 3.33 µM with TNF-α (Table 4, 18 to 24 hours) and 0.37 µM with IFN-α (Table 4, 18 to 24 hours).
Take `CCc1nc2c(N)nc3cccnc3c2n1CC(C)(C)O` [Analog 4, 1-(4-amino-2-ethyl-1H-imidazo[4,5-c][1,5]naphthyridin-1-yl)-2-methylpropan-2-ol, reference compound]: the minimal effective concentration stood at 3.33 µM in the data set with TNF-α (Table 4, 18 to 24 hours) and 0.37 µM with IFN-α (Table 4, 18 to 24 hours).
With `CCCc1nc2c(N)nc3cccnc3c2n1CC(C)(C)O` [Analog 5, 1-(4-amino-2-propyl-1H-imidazo[4,5-c][1,5]naphthyridin-1-yl)-2-methylpropan-2-ol, reference compound], the minimal effective concentration turned out to be 1.11 µM in the data set on TNF-α (Table 4, 18 to 24 hours) and 0.12 µM with IFN-α (Table 4, 18 to 24 hours).
As to `CCOCc1nc2c(N)nc3cccnc3c2n1CC(C)(C)NC(=O)C1CCCCC1` [Analog 6, N-[2-(4-amino-2-ethoxymethyl-1H-imidazo[4,5-c][1,5]naphthyridin-1-yl)-1,1-dimethylethyl]cyclohexanecarboxamide], the melting point was in the range of 210 to 211 °C. Besides, the minimal effective concentration in the data set with TNF-α (Table 4, 18 to 24 hours) came to 0.014 µM. The minimal effective concentration with IFN-α (Table 4, 18 to 24 hours) stood at 0.014 µM.
For `CCOCc1nc2c(N)nc3cccnc3c2n1CC(C)(C)NS(C)(=O)=O` [Analog 7, N-[2-(4-amino-2-ethoxoxymethyl-1H-imidazo[4,5-c][1,5]naphthyridin-1-yl)-1,1-dimethylethyl]methanesulfonamide, reference compound], the minimal effective concentration in the data set on TNF-α (Table 4, 18 to 24 hours) was found to be 0.37 µM; with IFN-α (Table 4, 18 to 24 hours), 0.04 µM. Moreover, in the data set on TNF-α, the “Maximal Response TNF” value was 9234 pg/mL. Besides, in the data set on IFN-α (Table 4, background-subtracted, reference-adjusted), the “Maximal Response IFN” value is 2465 pg/mL.
Take `Cc1nc2c(N)nc3cccnc3c2n1CC(C)(C)F` [Analog 8, 1-(2-fluoro-2-methylpropyl)-2-methyl-1H-imidazo[4,5-c][1,5]naphthyridin-4-amine, reference compound]: the minimal effective concentration in the data set with TNF-α (Table 4, 18 to 24 hours) turned out to be 10 µM; with IFN-α (Table 4, 18 to 24 hours), 0.37 µM.
Consider `CCOCc1nc2c(N)nc3cccnc3c2n1CC(C)C` [Analog 9, 2-ethoxymethyl-1-(2-methylpropyl)-1H-imidazo[4,5-c][1,5]naphthyridin-4-amine, reference compound], for which the minimal effective concentration was 1.11 µM in the data set on TNF-α (Table 4, 18 to 24 hours) and 0.12 µM in the data set on IFN-α (Table 4, 18 to 24 hours).
For `Cc1nc2c(N)nc3cccnc3c2n1CC(C)C` [Analog 10, 2-methyl-1-(2-methylpropyl)-1H-imidazo[4,5-c][1,5]naphthyridin-4-amine, reference compound], the minimal effective concentration with TNF-α (Table 4, 18 to 24 hours) turned out to be 1.11 µM; in the data set on IFN-α (Table 4, 18 to 24 hours), 0.37 µM.
The molecule `CC(C)(Cn1c(CO)nc2c(N)nc3cccnc3c21)NC(=O)C1CCCCC1` [Example 1, N-[2-(4-Amino-2-hydroxymethyl-1H-imidazo[4,5-c][1,5]naphthyridin-1-yl)-1,1-dimethylethyl]cyclohexanecarboxamide] had a melting point of 230 to 232 °C. The minimal effective concentration in the data set with TNF-α (Table 4, 18 to 24 hours) came to 10 µM. Besides, in the data set on IFN-α (Table 4, 18 to 24 hours), the minimal effective concentration turned out to be 1.11 µM.
`CC(C)(Cn1c(CO)nc2c(N)nc3cccnc3c21)NS(C)(=O)=O` [Example 2, N-[2-(4-Amino-2-hydroxymethyl-1H-imidazo[4,5-c][1,5]naphthyridin-1-yl)-1,1-dimethylethyl]methanesulfonamide] had a melting point of 268 to 271 °C. In addition, in the data set with TNF-α (Table 4, 18 to 24 hours), the minimal effective concentration came out at 30 µM. Further, the minimal effective concentration in the data set with IFN-α (Table 4, 18 to 24 hours) stood at 10 µM.
Molecule `CS(=O)(=O)NCCCCn1c(CCO)nc2c(N)nc3cccnc3c21` [Example 3, N-{4-{4-Amino-2-(2-hydroxyethyl)-1H-imidazo[4,5-c][1,5]naphthyridin-1-yl]butyl}methanesulfonamide] registered a melting point of 194 to 195 °C. In the data set on TNF-α (Table 4, 18 to 24 hours), the minimal effective concentration is 30 µM. For the same molecule, the minimal effective concentration in the data set on IFN-α (Table 4, 18 to 24 hours) stood at 1.11 µM.
As for `CS(=O)(=O)NCCn1c(CO)nc2c(N)nc3cccnc3c21` [Example 4, N-[2-(4-Amino-2-hydroxymethyl-1H-imidazo[4,5-c][1,5]naphthyridin-1-yl)ethyl]methanesulfonamide], the melting point was 239 to 242 °C. For the same molecule, the minimal effective concentration in the data set on TNF-α (Table 4, 18 to 24 hours) is greater than 30 µM. The “Maximal Response TNF” value in the data set on TNF-α was “* (Below the experimental background of 40 pg/mL)”. In the data set on IFN-α (Table 4, 18 to 24 hours), the minimal effective concentration is 10 µM.
Molecule `CS(=O)(=O)NCCn1c(CCO)nc2c(N)nc3cccnc3c21` [Example 5, N-{2-[4-Amino-2-(2-hydroxyethyl)-1H-imidazo[4,5-c][1,5]naphthyridin-1-yl]ethyl}methanesulfonamide] came in with a melting point of 136 to 138 °C. In the data set with TNF-α (Table 4, 18 to 24 hours), the minimal effective concentration is greater than 30 µM. Also, the “Maximal Response TNF” value in the data set on TNF-α was “* (Below the experimental background of 40 pg/mL)”. The minimal effective concentration in the data set with IFN-α (Table 4, 18 to 24 hours) turned out to be 30 µM.

(Values after patent US8343993B2, “Hydroxyalkyl substituted imidazonaphthyridines” (3M Innovative Properties Company, priority 2005, dated 2013).)
